Measurements reported in US20180265515A1 (Genentech, Inc., priority 2015, published 2018).

Legend:
[1] = molecular target: LRRK2 (Homo sapiens, UniProt Q5S007); experiment: LRRK2 assay (Life Technologies Adapta, SelectScreen Profiling, IC50); assay type: biochemical; conditions: for IC50: 75 μM ATP, 10-point curves, read-out: LRRK 2 IC50; for Ratio (LRRK 2 IC50: JAK1 Ki): selectivity ratio LRRK2 IC50 over JAK1 Ki; for selectivity for JAK1 over LRRK2 (in words): 5-sulfanylphenyl compound compared with 5-chlorophenyl matched pair
[2] = molecular target: T1, isolated recombinant JAK1 kinase domain (Homo sapiens, UniProt P23458); experiment: JAK1 enzyme assay (Caliper LabChip, Ki); assay type: biochemical; conditions: 25 μM ATP
T1 construct: The activity of the isolated recombinant JAK1 and JAK2 kinase domain was measured
Procedure, shortened: (§1)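 Recombinant JAK1 or JAK2 kinase domain phosphorylating a 5-carboxyfluorescein-labelled JAK3-derived peptide, 30 min at 22° C, stopped with EDTA. Phosphorylated fraction of substrate quantified by Caliper LabChip microfluidic separation. Ki from Morrison tight-binding model corrected for ATP competition (Ki=Ki,app/(1+[ATP]/Km,app)).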

[3] = molecular target: T2, isolated recombinant JAK2 kinase domain (Homo sapiens, UniProt O60674); experiment: JAK2 enzyme assay (Caliper LabChip, Ki); assay type: biochemical; conditions: 25 μM ATP
T2 construct: The activity of the isolated recombinant JAK1 and JAK2 kinase domain was measured
Procedure, shortened: as §1

[4] = test system: JAK1-dependent STAT6 phosphorylation downstream of IL-13 stimulation in BEAS-2B human bronchial epithelial cells; experiment: JAK1 pathway assay in BEAS-2B cells (IL-13 stimulated STAT6 phosphorylation, MSD); assay type: cell-based; conditions: read-out: P-STAT6 BEAS2B + IL13 IC50
Procedure, shortened: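 BEAS-2B human bronchial epithelial cells, plated the day before in complete growth medium, were preincubated with compound for 1 hr at 37° C (0.2% DMSO final), then stimulated with IL-13 at its EC90 for 15 min. STAT6 phosphorylation in lysates was read by MSD; EC50 was taken as 50% inhibition versus DMSO control.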

T1 sequence (P23458 875-1153 limits assumed): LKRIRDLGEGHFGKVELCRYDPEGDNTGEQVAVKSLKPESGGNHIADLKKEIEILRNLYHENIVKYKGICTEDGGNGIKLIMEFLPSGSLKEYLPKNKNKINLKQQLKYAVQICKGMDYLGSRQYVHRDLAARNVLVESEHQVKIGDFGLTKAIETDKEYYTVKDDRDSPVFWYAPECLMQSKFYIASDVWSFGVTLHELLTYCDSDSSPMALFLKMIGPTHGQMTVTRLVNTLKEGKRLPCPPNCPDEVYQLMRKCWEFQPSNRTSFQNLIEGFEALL
T2 sequence (O60674 849-1124 limits assumed): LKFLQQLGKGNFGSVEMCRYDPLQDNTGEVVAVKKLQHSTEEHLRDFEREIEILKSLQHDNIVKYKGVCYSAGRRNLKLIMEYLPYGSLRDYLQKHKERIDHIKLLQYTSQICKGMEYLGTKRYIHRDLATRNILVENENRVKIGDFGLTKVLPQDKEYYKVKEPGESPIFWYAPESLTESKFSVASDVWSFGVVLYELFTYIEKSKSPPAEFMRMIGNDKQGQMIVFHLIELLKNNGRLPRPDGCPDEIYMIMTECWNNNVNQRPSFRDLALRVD
Chain of LRRK2 (Q5S007 970-2527 limits assumed): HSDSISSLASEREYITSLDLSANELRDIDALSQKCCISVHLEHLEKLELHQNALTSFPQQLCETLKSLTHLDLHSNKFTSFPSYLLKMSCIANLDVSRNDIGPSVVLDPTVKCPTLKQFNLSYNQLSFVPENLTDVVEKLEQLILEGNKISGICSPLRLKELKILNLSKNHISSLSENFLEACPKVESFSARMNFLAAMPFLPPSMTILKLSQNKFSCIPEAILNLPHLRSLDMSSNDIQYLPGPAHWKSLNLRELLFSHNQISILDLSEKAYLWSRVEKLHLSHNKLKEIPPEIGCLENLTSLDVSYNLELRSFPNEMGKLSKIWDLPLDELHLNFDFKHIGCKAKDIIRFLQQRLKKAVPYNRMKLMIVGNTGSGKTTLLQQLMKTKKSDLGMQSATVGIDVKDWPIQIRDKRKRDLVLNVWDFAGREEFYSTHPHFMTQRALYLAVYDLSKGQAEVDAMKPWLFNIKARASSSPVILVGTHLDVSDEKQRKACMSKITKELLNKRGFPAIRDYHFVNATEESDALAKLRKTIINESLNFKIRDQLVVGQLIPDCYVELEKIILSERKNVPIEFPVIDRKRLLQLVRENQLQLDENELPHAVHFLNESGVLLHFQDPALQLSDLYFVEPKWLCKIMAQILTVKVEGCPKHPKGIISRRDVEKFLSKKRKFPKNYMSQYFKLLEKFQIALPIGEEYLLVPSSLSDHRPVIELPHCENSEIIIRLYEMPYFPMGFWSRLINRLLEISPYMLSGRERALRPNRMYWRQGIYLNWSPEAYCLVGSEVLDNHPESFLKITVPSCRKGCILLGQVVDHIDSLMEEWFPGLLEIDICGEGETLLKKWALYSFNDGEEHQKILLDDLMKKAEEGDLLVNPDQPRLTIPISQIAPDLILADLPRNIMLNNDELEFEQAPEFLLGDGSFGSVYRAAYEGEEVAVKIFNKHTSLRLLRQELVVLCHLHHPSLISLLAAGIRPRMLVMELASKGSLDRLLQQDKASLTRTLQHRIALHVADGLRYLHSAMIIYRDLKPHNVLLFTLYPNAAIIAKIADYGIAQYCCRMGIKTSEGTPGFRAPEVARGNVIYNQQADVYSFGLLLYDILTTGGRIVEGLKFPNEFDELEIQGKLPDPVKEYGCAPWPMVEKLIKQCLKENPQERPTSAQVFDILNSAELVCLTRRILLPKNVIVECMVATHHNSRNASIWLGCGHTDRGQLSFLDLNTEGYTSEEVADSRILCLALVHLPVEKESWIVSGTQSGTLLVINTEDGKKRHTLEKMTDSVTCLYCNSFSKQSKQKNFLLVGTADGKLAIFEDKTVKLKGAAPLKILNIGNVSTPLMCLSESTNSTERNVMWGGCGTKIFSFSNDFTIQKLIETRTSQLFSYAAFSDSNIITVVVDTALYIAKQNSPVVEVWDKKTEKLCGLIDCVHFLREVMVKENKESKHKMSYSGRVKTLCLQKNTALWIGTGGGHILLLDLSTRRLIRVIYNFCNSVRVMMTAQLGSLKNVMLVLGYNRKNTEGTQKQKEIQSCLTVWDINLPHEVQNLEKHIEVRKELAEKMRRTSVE

SMILES	IC50 [1] [nM]	Ratio (LRRK 2 IC50: JAK1 Ki) [1]	Ki ([2]; Morrison tight binding model) [nM]	selectivity for JAK1 over LRRK2 (in words) [1]	Ki [3] [nM]	IC50 [4] [nM]	Ki ([2]; recombinant JAK1 kinase domain) [nM]
Cn1cc(NC(=O)c2cnn3cccnc23)c(-c2cc(Cl)ccc2OC(F)F)n1 [A, reference compound]	80.9	449	0.18				
CC(C)(O)Cn1cc(NC(=O)c2cnn3cccnc23)c(-c2cc(Cl)ccc2OC(F)F)n1 [B, reference compound]	431	1078	0.4				
O=C(Nc1cn(C2CCOCC2)nc1-c1cc(Cl)ccc1OC(F)F)c1cnn2cccnc12 [C, reference compound]	1030	1493	0.69				
CSc1ccc(OC(F)F)c(-c2nn(C)cc2NC(=O)c2cnn3cccnc23)c1 [D]	193	1485	0.13	greater selectivity for JAK1 over LRRK2 than their 5-chlorophenyl matched pair A			
CC(C)Sc1ccc(OC(F)F)c(-c2nn(C)cc2NC(=O)c2cnn3cccnc23)c1 [E]	2220	8880	0.25	greater selectivity for JAK1 over LRRK2 than their 5-chlorophenyl matched pair A			
O=C(Nc1cn(CC(=O)N2CCC(CN3CCOCC3)CC2)nc1-c1cc(SC2COC2)ccc1OC(F)F)c1cnn2cccnc12 [Example 183, N-[3-[2-(difluoromethoxy)-5-(oxetan-3-ylsulfanyl)phenyl]-1-[2-[4-(morpholinomethyl)-1-piperidyl]-2-oxo-ethyl]pyrazol-4-yl]pyrazolo[1,5-a]pyrimidine-3-carboxamide]					1.5	33	0.65
O=C(Nc1cn(CC(=O)N2CCN(C3CCOCC3)CC2)nc1-c1cc(SC2COC2)ccc1OC(F)F)c1cnn2cccnc12 [Example 184, N-[3-[2-(difluoromethoxy)-5-(oxetan-3-ylsulfanyl)phenyl]-1-[2-oxo-2-(4-tetrahydropyran-4-ylpiperazin-1-yl)ethyl]pyrazol-4-yl]pyrazolo[1,5-a]pyrimidine-3-carboxamide]					1.1	74	0.56
CC(F)(F)CNC1CCN(C(=O)Cn2cc(NC(=O)c3cnn4cccnc34)c(-c3cc(SC4COC4)ccc3OC(F)F)n2)CC1 [Example 185, N-[3-[2-(difluoromethoxy)-5-(oxetan-3-ylsulfanyl)phenyl]-1-[2-[4-(2,2-difluoropropylamino)-1-piperidyl]-2-oxo-ethyl]pyrazol-4-yl]pyrazolo[1,5-a]pyrimidine-3-carboxamide]					1.7	47	0.71
CC(C)(C#N)CNC1CCN(C(=O)Cn2cc(NC(=O)c3cnn4cccnc34)c(-c3cc(SC4COC4)ccc3OC(F)F)n2)CC1 [Example 186, N-[1-[2-[4-[(2-cyano-2-methyl-propyl)amino]-1-piperidyl]-2-oxo-ethyl]-3-[2-(difluoromethoxy)-5-(oxetan-3-ylsulfanyl)phenyl]pyrazol-4-yl]pyrazolo[1,5-a]pyrimidine-3-carboxamide]					1.8	90	0.65
CN(C1CCN(C(=O)Cn2cc(NC(=O)c3cnn4cccnc34)c(-c3cc(SC4COC4)ccc3OC(F)F)n2)CC1)C1COC1 [Example 187, N-[3-[2-(difluoromethoxy)-5-(oxetan-3-ylsulfanyl)phenyl]-1-[2-[4-[methyl(oxetan-3-yl)amino]-1-piperidyl]-2-oxo-ethyl]pyrazol-4-yl]pyrazolo[1,5-a]pyrimidine-3-carboxamide]					1.3	250	0.54
O=C(Nc1cn(CC(=O)N2CCN(CC3CCOCC3)CC2)nc1-c1cc(SC2COC2)ccc1OC(F)F)c1cnn2cccnc12 [Example 188, N-[3-[2-(difluoromethoxy)-5-(oxetan-3-ylsulfanyl)phenyl]-1-[2-oxo-2-[4-(tetrahydropyran-4-ylmethyl)piperazin-1-yl]ethyl]pyrazol-4-yl]pyrazolo[1,5-a]pyrimidine-3-carboxamide]					1.3	48	0.62
N#CC1(CNC2CCN(C(=O)Cn3cc(NC(=O)c4cnn5cccnc45)c(-c4cc(SC5COC5)ccc4OC(F)F)n3)CC2)CC1 [Example 189, N-[1-[2-[4-[(1-cyanocyclopropyl)methylamino]-1-piperidyl]-2-oxo-ethyl]-3-[2-(difluoromethoxy)-5-(oxetan-3-ylsulfanyl)phenyl]pyrazol-4-yl]pyrazolo[1,5-a]pyrimidine-3-carboxamide]					3	770	1
CN1CCN(C2CCN(C(=O)Cn3cc(NC(=O)c4cnn5cccnc45)c(-c4cc(SC5COC5)ccc4OC(F)F)n3)CC2)CC1 [Example 190, N-[3-[2-(difluoromethoxy)-5-(oxetan-3-ylsulfanyl)phenyl]-1-[2-[4-(4-methylpiperazin-1-yl)-1-piperidyl]-2-oxo-ethyl]pyrazol-4-yl]pyrazolo[1,5-a]pyrimidine-3-carboxamide]					3.8	170	1.1
COC(=O)N1CCN(CC2CCN(C(=O)Cn3cc(NC(=O)c4cnn5cccnc45)c(-c4cc(SC5COC5)ccc4OC(F)F)n3)CC2)CC1 [Example 191, methyl 4-[[1-[2-[3-[2-(difluoromethoxy)-5-(oxetan-3-ylsulfanyl)phenyl]-4-(pyrazolo[1,5-a]pyrimidine-3-carbonylamino)pyrazol-1-yl]acetyl]-4-piperidyl]methyl]piperazine-1-carboxylate]					1	49	0.44
CCSc1ccc(OC(F)F)c(-c2n[nH]cc2NC(=O)c2cnn3cccnc23)c1 [Example 192, N-[3-[2-(difluoromethoxy)-5-ethylsulfanyl-phenyl]-1H-pyrazol-4-yl]pyrazolo[1,5-a]pyrimidine-3-carboxamide]					0.055	2	0.12
CCSc1ccc(OC(F)F)c(-c2nn(CC(=O)N3CCC(N4CCOCC4)CC3)cc2NC(=O)c2cnn3cccnc23)c1 [Example 193]					0.57	17	0.36
CCSc1ccc(OC(F)F)c(-c2nn(CC(=O)N3CCC(N(C)CCC#N)CC3)cc2NC(=O)c2cnn3cccnc23)c1 [Example 194, N-[1-[2-[4-[2-cyanoethyl(methyl)amino]-1-piperidyl]-2-oxo-ethyl]-3-[2-(difluoromethoxy)-5-ethylsulfanyl-phenyl]pyrazol-4-yl]pyrazolo[1,5-a]pyrimidine-3-carboxamide]					0.63	25	0.31
Cn1cc(NC(=O)c2cnn3cccnc23)c(-c2cc(SC3COC3)ccc2OC(F)F)n1 [F]			0.29	greater selectivity for JAK1 over LRRK2 than their 5-chlorophenyl matched pair A			
Cn1cc(NC(=O)c2cnn3cccnc23)c(-c2cc(SC(CF)CF)ccc2OC(F)F)n1 [G]			0.16	greater selectivity for JAK1 over LRRK2 than their 5-chlorophenyl matched pair A			
CSc1ccc(OC(F)F)c(-c2nn(CC(C)(C)O)cc2NC(=O)c2cnn3cccnc23)c1 [H]				greater selectivity for JAK1 over LRRK2 than its 5-chlorophenyl matched pair B			
CSc1ccc(OC(F)F)c(-c2nn(C3CCOCC3)cc2NC(=O)c2cnn3cccnc23)c1 [I]			0.67	greater selectivity for JAK1 over LRRK2 than its 5-chlorophenyl matched pair C			
